From patent publication US20030036184A1 (priority 2000, published 2003)

Experiments:
[1] = target: PDE7A (Homo sapiens, UniProt Q13946); conditions: cited from earlier work
[2] = target: T1, PDE7(101-450) (Homo sapiens, UniProt Q13946); experiment: PDE assay for IC50 measurements (SPA, cell lysate enzyme); type: biochemical; conditions: for sensitivity of enzyme to inhibitor: PDE7(101-450) produced in Baculovirus or eucaryote
T1 construct: made in house; host or cells: CHO (EcRCHO) cells, transient transfection; crude lysate supernatant
Procedure: (§1) The cell lysates containing PDE7A1 (full length or the truncated forms) were used as enzyme source. PDE assays were performed in 96-well plates in a final volume of […] at pH 8 comprising: 2 μL of compound dissolved in DMSO at 8 different concentrations, 40 mM TRIS, 10 mM MgCl2, 50 nM [^3H]-cAMP (Amersham) and enzyme at the appropriate concentration. Plates were incubated for 10 min at 37° C. in a heater/shaker and stopped by addition of 20 μL Yttrium silicate beads (Scintillation Proximity Assay, Amersham). Enzyme activity was read on a Topcount reader (Packard). Substrate depletion never exceeded 15% of the initial amount. The given IC50s represent the concentration of compound leading to 50% inhibition of the cAMP hydrolysis versus control. They are calculated using a classical sigmoidal model with Hill slope fixed to 1.
(§2) The cell lysates containing recombinant PDE7A1 (full length or the truncated forms) were used as enzyme source. PDE assays were performed in 96-well plates in a final volume of 100 μL at pH 8 comprising: […] of compound dissolved in DMSO at 8 different concentrations, 40 mM TRIS, 10 mM MgCl2, 50 nM [^3H]-cAMP and enzyme at the appropriate concentration.
(§3) Plates were incubated for 10 min at 37° C. in a heater/shaker and stopped by addition of 20 μL Yttrium silicate beads (Scintillation Proximity Assay, Amersham).
(§4) Enzyme activity was determined by measuring the radioactivity on a Topcount reader (Packard).
(§5) Substrate depletion never exceeded 15% of the initial amount. The given IC50s represent the concentration of compound leading to 50% inhibition of the cAMP hydrolysis versus control. They are calculated using a classical sigmoidal model with Hill slope

[3] = target: T2, recombinant full length PDE7A1 (Homo sapiens, UniProt Q13946); experiment: as above; type: biochemical; conditions: for sensitivity of enzyme to inhibitor: full length PDE7A produced in Baculovirus or eucaryote
T2 construct: the full length PDE7A1 protein (1-483); made in house; host or cells: CHO (EcRCHO) cells, transient transfection, cytosol/lysate supernatant; Sf21/baculovirus also described
Procedure: as §1, §2, §3, §4, §5

[4] = target: PDE7 mutant corresponding to the amino acids sequence 101-483 of the full length human PDE7A1 (human) (UniProt Q13946); experiment: cell-based or functional assay
[5] = target: T3, PDE7(101-483) (Homo sapiens, UniProt Q13946); experiment: PDE assay for IC50 measurements (SPA, cell lysate enzyme); type: biochemical
T3 construct: this catalytic fragment (101-482) fragment was co-expressed; made in house; host or cells: CHO (EcRCHO) cells, transient transfection; crude lysate supernatant
Procedure: as §1, §2, §3, §4, §5

[6] = target: T3, PDE7(101-483); experiment: cAMP hydrolysis in cytosol extract of transfected CHO cells, with rolipram; type: biochemical; conditions: truncated PDE7 construct 101-483 in CHO; rolipram at 10 μM
Procedure: Three days before transfection, CHO cells were plated at a density of 2×10^6 cells per 150 cm^2 flask. Cells were transfected with 20 μg of endotoxin free plasmid DNA using Lipofectamine following the manufacturers instructions (Gibco BRL, Gaithersburg, Md.). After incubation for 48 hours, cells were washed twice with phosphate buffered saline (PBS), trypsinized, harvested by centrifugation and resuspended in 300 μL of PDE extraction buffer (Bis Tris 20 mM (pH 6.5), EDTA 10 mM, DTT 2.5 M) supplemented with a mixture of protease inhibitors at a final concentration of 2 mM benzamidine, 2 μg/ml soybean trypsin inhibitor, 50 μM PMSF and 100 μg/ml bacitracin. Cells were sonicated, centrifuged for 20 minutes at 14,000 g and the resultant supernatants were analyzed for cAMP phosphodiesterase activity.
Phosphodiesterase activities were assayed using a modification of the method described by Smith and collaborators (Manganellio et al., 1991) using the observation that 5′-nucleotides bind very strongly to aluma while the cyclic nucleotides are readily eluted at neutral or slightly alkaline pH. Assays were performed in 96 well plates at 37° C. in a total volume of 200 μl. […] The separated [^3H] cAMP was back-corrected for recovery using the separated and non-separated [^14C] values and expressed as a fraction of the total [^3H] cAMP to give the amount of the substrate hydrolyzed. […]

[7] = target: T4, recombinant PDE7A1 (Homo sapiens, UniProt Q13946); experiment: cAMP hydrolysis in cytosol extract of transfected CHO cells, with or without rolipram; type: biochemical; conditions: rolipram 10 μM
T4 construct: the full length PDE7A1 protein (1-483); made in house; host or cells: CHO (EcRCHO) cells, transient transfection, cytosol/lysate supernatant; Sf21/baculovirus also described
Description: (§6) The reaction mixtures were then applied to these columns.

[8] = PDE catalytic activity of full length and truncated PDE7A1 expressed in CHO cells; type: biochemical; conditions: for level of PDE activity after expression in CHO cells (in words): cell cytosol, compared with full length PDE7A1 or PDE7Δ100; for increase in PDE catalytic activity compared to full length PDE7A1/PDE7A2 / phosphodiesterase catalytic activity relative to full length enzyme: expressed in CHO cells
Procedure: as §6
The resultant PDE activity was measured and compared to that for the full length coding region of PDE7A1 and non-transfected cells. […] The first 100 amino acids seem to have an influence on the catalytic activity of the expressed PDE7 enzyme.

[9] = PDE assay for Km measurements; type: biochemical; conditions: Km for cAMP
Procedure: The cell lysates containing PDE7A1 (full length or the truncated forms) were used as enzyme source. […] Substrate concentrations spanned a 15 nM-750 nM range. Plates were incubated for 10 min at 37° C. in a heater/shaker and stopped by addition of 20 μL Yttrium silicate beads (Scintillation Proximity Assay, Amersham). Enzyme activity was read on a Topcount reader (Packard). Substrate depletion never exceeded 15% of the initial amount. Saturation curves were then fitted with a classical sigmoidal model, Hill slope fixed to 1.
By performing kinetics studies and Km measurements as described above, the respective Km values of the full length PDE7A1 and the truncated 101-450 PDE7A1 recombinant proteins expressed in CHO cells have been determined and are shown in Table 1 below.
The Km for cAMP of the PDE7(101-450), PDE7(101-483), have been measured and compared to those of endogenously expressed PDE7 in human lymphocyte cell line (Molt4) and the full length wild type recombinant PDE7A1 (Table 1).

[10] = target: T5, catalytic fragment (101-482) (Homo sapiens, UniProt Q13946); experiment: Co-expression of the first 100 N-terminal amino acids with the catalytic fragment in CHO cells, PDE activity; type: cell-based
T5 construct: this catalytic fragment (101-482) fragment was co-expressed; 6xHis (N); expressed in transfected cells; host or cells: CHO cells co-transfected (lipofectamine) with two plasmids; PDE activity measured
Procedure: This part of the protein has been proposed to act as an auto-inhibitory domain. To establish if overexpression of the first 100 amino acids can inhibit PDE7 activity of the catalytic site, this catalytic fragment (101-482) fragment was co-expressed with the fragment 1-101 of a separate plasmid or with the plasmid pcDNA3 without this insert (negative control). Cells were transfected with 15 μg of each plasmid DNA. The catalytic site activity was inhibited of only around 40-50% in presence of fragment 1-101. (FIG. 12) The effect dose response has been checked to evaluate the involvement of the first 100 amino in PDE7 activity of the catalytic domain.
A dose effect curve has been done in the same coexpression conditions. 15 μg of the catalytic fragment (101-482) was coexpressed with increasing quantity of the fragment 1-101 of a separate plasmid. The DNA quantity was normalized for each transfection using an empty vector. (FIG. 13) A effect dose response of 100 N-terminal amino acids on PDE7 activity was observed (n=3). The catalytic domain activity was inhibited until 60% in presence of the fragment 1-100 at the highest concentration.

Sequence of PDE7A (Q13946 whole entry, species assumed): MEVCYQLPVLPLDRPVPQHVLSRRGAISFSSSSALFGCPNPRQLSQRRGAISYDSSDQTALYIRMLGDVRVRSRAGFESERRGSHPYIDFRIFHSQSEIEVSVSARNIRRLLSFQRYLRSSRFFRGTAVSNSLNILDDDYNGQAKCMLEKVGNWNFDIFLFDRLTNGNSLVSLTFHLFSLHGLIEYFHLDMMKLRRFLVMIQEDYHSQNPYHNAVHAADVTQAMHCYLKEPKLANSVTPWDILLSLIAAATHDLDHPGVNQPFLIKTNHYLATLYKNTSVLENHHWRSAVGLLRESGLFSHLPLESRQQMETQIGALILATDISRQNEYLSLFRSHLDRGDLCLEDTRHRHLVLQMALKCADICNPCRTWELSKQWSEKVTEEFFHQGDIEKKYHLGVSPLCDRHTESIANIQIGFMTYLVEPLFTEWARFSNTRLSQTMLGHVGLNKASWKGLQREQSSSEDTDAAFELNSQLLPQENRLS
T2 sequence (Q13946 whole entry): as the sequence (Q13946 whole entry, species assumed) above
T4 sequence (Q13946 whole entry): as the sequence (Q13946 whole entry, species assumed) above

## Cc1[nH]c(=O)c(C#N)cc1-c1ccncc1 [milrinone]
[1]
  sensitivity of PDE7A to standard selective inhibitors of other PDE families: insensitivity

## CN/C(=N\c1ccc(C2=NNC(=O)CC2C)cc1)NC#N (stereo not drawn) [SKF-94836]
[2]
  sensitivity of enzyme to inhibitor: insensitive
[3]
  sensitivity of enzyme to inhibitor: insensitive
[1]
  sensitivity of PDE7A to standard selective inhibitors of other PDE families: insensitivity

## first N-terminal 100 amino acids of the full length human PDE7A1 (from UniProt Q13946 1-100)
[4]
  PDE7 catalytic domain activity in CHO cells, 15 µg catalytic fragment plasmid with increasing quantity of fragment 1-101 plasmid, percent inhibition at the highest concentration: 60%
  PDE7 catalytic site activity in lysates of co-transfected CHO cells (15 µg of each plasmid), percent inhibition: 40 to 50%

## CCOC(=O)C1=C[C@]2(CC)CCCN3CCc4c(n1c1ccccc41)[C@@H]32 [Vinpocetin]
[2]
  sensitivity of enzyme to inhibitor: insensitive
[3]
  sensitivity of enzyme to inhibitor: insensitive
[1]
  sensitivity of PDE7A to standard selective inhibitors of other PDE families: insensitivity

## CCCOc1ccccc1-c1nc2nn[nH]c2c(=O)[nH]1 [Zaprinast]
[2]
  sensitivity of enzyme to inhibitor: insensitive
[3]
  sensitivity of enzyme to inhibitor: insensitive
[1]
  sensitivity of PDE7A to standard selective inhibitors of other PDE families: insensitivity

## CC(C)Cn1c(=O)n(C)c(=O)c2[nH]cnc21 [IBMX, 3 isobutyl-1-methyl xanthine]
[2]; PDE7(101-450)
  IC50: 13 to 14 µM
[5]
  IC50: 13 to 14 µM
[3]; recombinant full length PDE7A1
  IC50: 13 to 14 µM

## COc1ccc(C2CNC(=O)C2)cc1OC1CCCC1 (stereo not drawn) [rolipram]
[2]
  sensitivity of enzyme to inhibitor: insensitive
[3]
  sensitivity of enzyme to inhibitor: insensitive
[6]
  sensitivity of PDE activity to rolipram: insensitive
[7]
  sensitivity of increase in cAMP activity above basal to rolipram: insensitive

B1: PDE7A;101-420: truncated human PDE7A1, amino acids 101-420 (protein, UniProt Q13946 101-420, looked up, fragment)
chain: VSVSARNIRRLLSFQRYLRSSRFFRGTAVSNSLNILDDDYNGQAKCMLEKVGNWNFDIFLFDRLTNGNSLVSLTFHLFSLHGLIEYFHLDMMKLRRFLVMIQEDYHSQNPYHNAVHAADVTQAMHCYLKEPKLANSVTPWDILLSLIAAATHDLDHPGVNQPFLIKTNHYLATLYKNTSVLENHHWRSAVGLLRESGLFSHLPLESRQQMETQIGALILATDISRQNEYLSLFRSHLDRGDLCLEDTRHRHLVLQMALKCADICNPCRTWELSKQWSEKVTEEFFHQGDIEKKYHLGVSPLCDRHTESIANIQIGFMTYL
modifications: PDE7A1
[8]
  level of PDE activity after expression in CHO cells (in words): no detectable increase

B2: PDE7A;101-430: truncated human PDE7A1, amino acids 101-430 (protein, UniProt Q13946 101-430, looked up, fragment)
chain: VSVSARNIRRLLSFQRYLRSSRFFRGTAVSNSLNILDDDYNGQAKCMLEKVGNWNFDIFLFDRLTNGNSLVSLTFHLFSLHGLIEYFHLDMMKLRRFLVMIQEDYHSQNPYHNAVHAADVTQAMHCYLKEPKLANSVTPWDILLSLIAAATHDLDHPGVNQPFLIKTNHYLATLYKNTSVLENHHWRSAVGLLRESGLFSHLPLESRQQMETQIGALILATDISRQNEYLSLFRSHLDRGDLCLEDTRHRHLVLQMALKCADICNPCRTWELSKQWSEKVTEEFFHQGDIEKKYHLGVSPLCDRHTESIANIQIGFMTYLVEPLFTEWAR
modifications: PDE7A1
[8]
  level of PDE activity after expression in CHO cells (in words): no detectable increase

B3: PDE7Δ100: human PDE7A1 construct which lacks the first 100 amino acids; positions 45-427 of SEQ ID No1 (protein)
chain: VSVSARNIRRLLSFQRYLRSSRFFRGTAVSNSLNILDDDYNGQAKCMLEKVGNWNFDIFLFDRLTNGNSLVSLTFHLFSLHGLIEYFHLDMMKLRRFLVMIQEDYHSQNPYHNAVHAADVTQAMHCYLKEPKLANSVTPWDILLSLIAAATHDLDHPGVNQPFLIKTNHYLATLYKNTSVLENHHWRSAVGLLRESGLFSHLPLESRQQMETQIGALILATDISRQNEYLSLFRSHLDRGDLCLEDTRHRHLVLQMALKCADICNPCRTWELSKQWSEKVTEEFFHQGDIEKKYHLGVSPLCDRHTESIANIQIGFMTYLVEPLFTEWARFSNTRLSQTMLGHVGLNKASWKGLQREQSSSEDTDAAFELNSQLLPQENRLS
modifications: left off: small tags and cut ends
[9]; Table 1
  Km: 0.052 µM
[8]; CHO cells
  increase in PDE catalytic activity compared to mock transfected cells: 8 fold
[8]
  level of PDE activity after expression in CHO cells (in words): Highest levels of PDE activity
  increase in PDE catalytic activity compared to full length PDE7A1/PDE7A2: 15 fold
  phosphodiesterase catalytic activity relative to full length enzyme: about 15 times

B4: fragment 1-101: first N-terminal 100 amino acids of the full length human PDE7A1 (protein, UniProt Q13946 1-100, looked up, fragment)
chain: MEVCYQLPVLPLDRPVPQHVLSRRGAISFSSSSALFGCPNPRQLSQRRGAISYDSSDQTALYIRMLGDVRVRSRAGFESERRGSHPYIDFRIFHSQSEIE
modifications: PDE7A1
notes: first N-terminal 100 amino acids of the full length human PDE7A1
[10]; co-expression, 15 μg of each plasmid DNA
  inhibition of catalytic site activity: 40-50%
[10]; dose effect curve, fragment at the highest concentration, n=3
  inhibition of catalytic domain activity: ≤ 60%

B5: PDE7A;101-450: truncated human PDE7A1, amino acids 101-450; positions 45-394 of SEQ ID No1 (protein, listed as Homo sapiens)
chain: VSVSARNIRRLLSFQRYLRSSRFFRGTAVSNSLNILDDDYNGQAKCMLEKVGNWNFDIFLFDRLTNGNSLVSLTFHLFSLHGLIEYFHLDMMKLRRFLVMIQEDYHSQNPYHNAVHAADVTQAMHCYLKEPKLANSVTPWDILLSLIAAATHDLDHPGVNQPFLIKTNHYLATLYKNTSVLENHHWRSAVGLLRESGLFSHLPLESRQQMETQIGALILATDISRQNEYLSLFRSHLDRGDLCLEDTRHRHLVLQMALKCADICNPCRTWELSKQWSEKVTEEFFHQGDIEKKYHLGVSPLCDRHTESIANIQIGFMTYLVEPLFTEWARFSNTRLSQTMLGHVGLNKAS
[9]
  Km: 0.07 µM
[9]; Table 1
  Km: 0.074 µM
[8]
  level of PDE activity after expression in CHO cells (in words): equivalent to that observed for PDE7Δ100
  increase in PDE catalytic activity compared to full length PDE7A1/PDE7A2: about 15 fold
  phosphodiesterase catalytic activity relative to full length enzyme: about 15 times
